What all share (assay type): cell-based
Experiment [1] concerns human primary acute myeloid leukemia cells. The experiment can be described thus: Effect of single added factors in Basal Medium on proliferation (CCK-8). The note with it: additive at the listed final concentration in Basal Medium; samples A17007, A25104; 5 to 8 days; CCK-8, 450 nm; versus Basal Medium. The method, then: First, the Basal Medium was prepared. The formulation of the Basal Medium was monocyte serum-free medium (purchased from BI, 05-080-1A)+10% (v/v) fetal bovine serum (purchased from ExCell Bio, FND500)+100 μg/mL Primocin (purchased from InvivoGen, 0.2% (v/v), the commercial product concentration is 50 mg/mL).
Different types of growth factors (see Table 1) were added to the Basal Medium to prepare culture mediums for human primary acute myeloid leukemia cells containing different added components.
The culture mediums of different compositions in Table 1 were added into a 96-well plate in a volume of 100 μL/well. Human primary acute myeloid leukemia cells isolated from two cases of human primary acute myeloid leukemia bone marrow samples (numbered A17007, A25104, from the First Affiliated Hospital of Anhui Medical University) according to the above step (2) were inoculated in the 96-well culture plate at a density of 1×10^4 cells/well and cultured at 37° C. and 5% […]. After 5 to 8 days of culture, the cells grew to 70% to 85%, and 10 μL of Cell Counting Kit-8 (CCK-8, purchased from MCE) was added to each well and incubated at 37° C. and 5% CO2 for 2 to 4 hours. The substances in each well were mixed, and the plate was read using a multifunctional microplate reader (Multi-Mode Detection Platform, American Molecular Instruments (Shanghai) Co., Ltd.) at 450 nm. The Basal Medium without addition of any additive was used as a control.

Experiment [2] has the same test system. Briefly: Effect of combinations of added factors on proliferation (viable cell counting, FIG. 1). The conditions noted are these: six bone marrow samples. The method, then:
The culture mediums for human primary acute myeloid leukemia cells containing different combinations of added factors were prepared according to the components in Table 2, to investigate the proliferation-promoting effects of different added factor combinations on human primary acute myeloid leukemia cells.
Human primary acute myeloid leukemia cells were obtained from human primary acute myeloid leukemia bone marrow samples (numbered A17151, A17152, A20090, A20101, A21004, A20141) according to the process of step (2)-3 of Example 1. The obtained cell suspension was divided into 11 equal parts, which were then centrifuged at 1500 rpm for 4 minutes. After centrifugation, the cells were resuspended with 200 μL BM or No. 1 to 10 culture medium, respectively, and inoculated into a 48-well plate at a viable cell density of 2×10^4 cells/well (20,000 cells per well). Each well in the 48-well plate was supplemented to a volume of 1 mL with the corresponding culture mediums, and the resultant was fully mixed. After surface disinfection, the plate was placed in a 37° C., 5% CO2 incubator (purchased from Thermo Fisher) for culture.
The cells in the 48-well plate grew to more than 85% and were transferred to a 15 mL centrifuge tube which was then centrifuged at 1500 rpm for 5 minutes. 500 μL of monocyte serum-free medium was added to the centrifuge tube to resuspend the cell pellet. 12 μL of the resuspended cell suspension was fully mixed with 12 μL of trypan blue dye (Sangon Biotech (Shanghai) Co., Ltd.), and then 20 μL of the mixture was added into a cell counting plate (Countstar, specifications: 50 pieces/box). The percentage of viable large cells (cell size>10 μm) were calculated using a cell counter (Countstar, IC1000) (percentage of viable large cells (cell size>10 μm)=number of viable cells/total number of cells*100%). The results obtained from human primary acute myeloid leukemia cells of bone marrow samples A17151, A17152, A20090, A20101, A21004, and A20141 are shown in FIG. 1.

For experiment [3] the test system is unchanged. Briefly: Proliferative effects of different concentrations of added factors (ratio to Blank Control, FIGS. 2A-2H). The conditions noted are these: for concentration at which the cell proliferation effect is most significant: five concentrations tested; for proliferation-promoting effect of the factor: samples A23065, A17112, factor added back to formulation lacking it. The method, then:
Human primary acute myeloid leukemia cells were obtained from human primary acute myeloid leukemia bone marrow samples (numbered A23065, A17112) according to the process of step (2)-3 of Example 1. The cells were resuspended with Basal Medium (monocyte serum-free medium+10% (v/v) fetal bovine serum+100 μg/mL Primocin) for later use.
20 μl of cell suspension containing 4×10^4 cells was added to each well, and the suspension was diluted with 1 mL medium of the above Formulations 1-8, respectively.
When using the culture medium of Formulation 1, the prepared glutamine additive was added respectively to a 48-well plate inoculated with primary cells, with 1 mL per well, and the final concentration of glutamine additive was 0.5 mM, 1 mM, 2 mM, 4 mM, 8 mM, respectively; a well of Blank Control (BC) was set using the culture medium of Formulation 1.
When using the culture medium of Formulation 2, the prepared human SCF was added respectively to a 48-well plate inoculated with primary cells, with 1 mL per well, and the final concentration of human SCF was 1 ng/mL, 3 ng/mL, 9 ng/mL, 27 ng/mL, 81 ng/mL, respectively; a well of Blank Control (BC) was set using the culture medium of Formulation 2.
When using the culture medium of Formulation 5, the prepared human FLT3L was added respectively to a 48-well plate inoculated with primary cells, with 1 mL per well, and the final concentration of human FLT3L was 1 ng/mL, 3 ng/mL, 9 ng/mL, 27 ng/mL, 81 ng/mL, respectively; a well of Blank Control (BC) was set using the culture medium of Formulation 5.
When using the culture medium of Formulation 6, the prepared non-essential amino acids were added respectively to a 48-well plate inoculated with primary cells, with 1 mL per well, and the final concentration of non-essential amino acids was 12.5 µM, 25 µM, 50 µM, 100 µM, 200 µM, respectively; a well of Blank Control (BC) was set using the culture medium of Formulation 6.
When using the culture medium of Formulation 8, the prepared human M-CSF was added respectively to a 48-well plate inoculated with primary cells, with 1 mL per well, and the final concentration of human M-CSF was 1 ng/mL, 3 ng/mL, 9 ng/mL, 27 ng/mL, 81 ng/mL, respectively; a well of Blank Control (BC) was set using the culture medium of Formulation 8.
In FIGS. 2A to 2H, the ratio is a ratio of the number of cells of the first passage cultured by using each culture medium to the number of cells of the first passage cultured in the corresponding well of Blank Control.

Consider `C[C@@H](N)[C@H]1CC[C@H](C(=O)Nc2ccncc2)CC1` [Y-27632, reference compound], for which the “Level of promoting cell proliferation” value in experiment [1] is “−”.
Same read-out and setting: for human interleukin-5 [human IL-5] the value was “−”.
Consider human interleukin-6 [human IL-6], for which the “Level of promoting cell proliferation” value in experiment [1] is given as “+”. In addition, the “proliferation-promoting effect of the factor (omission from No. 1 medium)” value in experiment [2] is reported as “significantly promote the proliferation”. Besides, in experiment [3], the “concentration at which the cell proliferation effect is most significant” value amounted to 5.67 ng/mL and the “proliferation-promoting effect of the factor” value was “significant proliferation-promoting effect”.
The corresponding values for human interleukin-7 [human IL-7] are “+”, “significantly promote the proliferation”, 17 ng/mL and “significant proliferation-promoting effect”.
Turning to “human leukocyte interferon [human IFN-α]”, the “Level of promoting cell proliferation” value in experiment [1] is reported as “+”.
With human stem cell factor [human SCF], the “Level of promoting cell proliferation” value in experiment [1] was “+”. The “proliferation-promoting effect of the factor (omission from No. 1 medium)” value in experiment [2] was “significantly promote the proliferation”. Besides, in experiment [3], the “concentration at which the cell proliferation effect is most significant” value amounted to 9 ng/mL and the “proliferation-promoting effect of the factor” value is given as “significant proliferation-promoting effect”.
For human thrombopoietin [human TPO], the “Level of promoting cell proliferation” value in experiment [1] was “−”.

B1: human interleukin-10 (protein, UniProt P22301 19-178, looked up)
Interleukin-10: SPGQGTQSENSCTHFPGNLPNMLRDLRDAFSRVKTFFQMKDQLDNLLLKESLLEDFKGYLGCQALSEMIQFYLEEVMPQAENQDPDIKAHVNSLGENLKTLRLRLRRCHRFLPCENKSKAVEQVKNAFNKLQEKGIYKAMSEFDIFINYIEAYMTMKIRN
notes: cytokine additive from Sino Biological
For B1, the “Level of promoting cell proliferation” value in experiment [1] was “−”.

B2: recombinant human FLT3 Ligand (protein, UniProt P49771 27-235, looked up)
Fms-related tyrosine kinase 3 …: TQDCSFQHSPISSDFAVKIRELSDYLLQDYPVTVASNLQDEELCGGLWRLVLAQRWMERLKTVAGSKMQGLLERVNTEIHFVTKCAFQPPPSCLRFVQTNISRLLQETSEQLVALKPWITRQNFSRCLELQCQPDSSTLPPPWSPRPLEATAPTAPQPPLLLLLLLPVGLLLLAAAWCLHWQRTRRRTPRPGEQVPPVPSPQDLLLVEH
notes: growth factor additive from Sino Biological
Take B2: the “Level of promoting cell proliferation” value in experiment [1] was “+”. Besides, the “proliferation-promoting effect of the factor (omission from No. 1 medium)” value in experiment [2] is “significantly promote the proliferation”. In experiment [3], the “concentration at which the cell proliferation effect is most significant” value is 27 ng/mL and the “proliferation-promoting effect of the factor” value is “significant proliferation-promoting effect”.

B3: human interleukin-11 (protein, UniProt P20809 22-199, looked up)
Interleukin-11: PGPPPGPPRVSPDPRAELDSTVLLTRSLLADTRQLAAQLRDKFPADGDHNLDSLPTLAMSAGALGALQLPGVLTRLRADLLSYLRHVQWLRRAGGSSLKTLEPELGTLQARLDRLLRRLQLLMSRLALPQPPPDPPAPPLAPPSSAWGGIRAAHAILGGLHLTLDWAVRGLLLLKTRL
notes: as for B1
Consider B3, for which, in experiment [1], the “Level of promoting cell proliferation” value is “−”.

B4: human interleukin-22 (protein, UniProt Q9GZX6 34-179, looked up)
Interleukin-22: APISSHCRLDKSNFQQPYITNRTFMLAKEASLADNNTDVRLIGEKLFHGVSMSERCYLMKQVLNFTLEEVLFPQSDRFQPYMQEVVPFLARLSNRLSTCHIEGDDLHIQRNVQKLKDTVKKLGESGEIKAIGELDLLFMSLRNACI
notes: cytokine additive from Peprotech
Take B4: in experiment [1], the “Level of promoting cell proliferation” value is “−”.

B5: human granulocyte colony stimulating factor (protein, UniProt P09919 31-207, looked up)
Granulocyte …: TPLGPASSLPQSFLLKCLEQVRKIQGDGAALQEKLVSECATYKLCHPEELVLLGHSLGIPWAPLSSCPSQALQLAGCLSQLHSGLFLYQGLLQALEGISPELGPTLDTLQLDVADFATTIWQQMEELGMAPALQPTQGAMPAFASAFQRRAGGVLVASHLQSFLEVSYRVLRHLAQP
notes: as for B2
As to B5, in experiment [1], the “Level of promoting cell proliferation” value is reported as “−”.

B6: recombinant human macrophage colony-stimulating factor (protein, UniProt P09603 33-554, looked up)
Macrophage colony-stimulating …: EEVSEYCSHMIGSGHLQSLQRLIDSQMETSCQITFEFVDQEQLKDPVCYLKKAFLLVQDIMEDTMRFRDNTPNAIAIVQLQELSLRLKSCFTKDYEEHDKACVRTFYETPLQLLEKVKNVFNETKNLLDKDWNIFSKNCNNSFAECSSQDVVTKPDCNCLYPKAIPSSDPASVSPHQPLAPSMAPVAGLTWEDSEGTEGSSLLPGEQPLHTVDPGSAKQRPPRSTCQSFEPPETPVVKDSTIGGSPQPRPSVGAFNPGMEDILDSAMGTNWVPEEASGEASEIPVPQGTELSPSRPGGGSMQTEPARPSNFLSASSPLPASAKGQQPADVTGTALPRVGPVRPTGQDWNHTPQKTDHPSALLRDPPEPGSPRISSLRPQGLSNPSTLSAQPQLSRSHSSGSVLPLGELEGRRSTRDRRSPAEPEGGPASEGAARPLPRFNSVPLTDTGHERQSEGSFSPQLQESVFHLLVPSVILVLLAVGGLLFYRWRRRSHQEPQRADSPLEQPEGSPLTQDDRQVELPV
notes: as for B2
Turning to B6, the “Level of promoting cell proliferation” value in experiment [1] is “+”. In experiment [2], the “proliferation-promoting effect of the factor (omission from No. 1 medium)” value was “significantly promote the proliferation”. Further, in experiment [3], the “concentration at which the cell proliferation effect is most significant” value was determined as 27 ng/mL and the “proliferation-promoting effect of the factor” value was “significant proliferation-promoting effect”.

B7: human interleukin-4 (protein, UniProt P05112 25-153, looked up)
Interleukin-4: HKCDITLQEIIKTLNSLTEQKTLCTELTVTDIFAASKNTTEKETFCRAATVLRQFYSHHEKDTRCLGATAQQFHRHKQLIRFLKRLDRNLWGLAGLNSCPVKEANQSTLENFLERLKTIMREKYSKCSS
notes: as for B1
Consider B7, for which the “Level of promoting cell proliferation” value in experiment [1] is on record as “−”.

For the origin of these results see patent US20240344035A1, “Culture Medium and Culture Method for Human Primary Acute Myeloid Leukemia Cells” (PRECEDO PHARMACEUTICALS CO., LTD, priority 2021, published 2024).
